Where two headings read alike, the source gives them in different places. Marks after values point to notes of the source that are not given here.
Tested on: SARS-CoV-2
Assay type: cell-based
Details: 30-minute contact time at 22 ± 2° C.; for Virus (CCID50/0.1 mL): average of 3 replicates ± standard deviation; for LRV (log reduction value): compared to the virus control

Compound	Virus (CCID50/0.1 mL) (1 μg/mL)	LRV (log reduction value) (1 μg/mL) [log10]	Virus (CCID50/0.1 mL) (5 μg/mL)	LRV (log reduction value) (5 μg/mL) [log10]	Virus (CCID50/0.1 mL) (25 μg/mL)	LRV (log reduction value) (25 μg/mL) [log10]	Virus (CCID50/0.1 mL) (100 μg/mL)	LRV (log reduction value) (100 μg/mL) [log10]	Virus (CCID50/0.1 mL) (35%)	LRV (log reduction value) (35%) [log10]
CCCCCCCCOC(=O)CC[C@@H](C)[C@H]1CC[C@H]2[C@@H]3[C@H](OC(=O)CCN)C[C@@H]4C[C@H](OC(=O)CCN)CC[C@]4(C)[C@H]3C[C@H](OC(=O)CCN)[C@]12C [CSA-44HC1]	4.4 ± 0.12	0	3.9 ± 0.17	0.5	0.8 ± 0.19	3.6	1.2 ± 0.94 CCID50/0.1 mL	3.2		
CCCCCCCCCCCCNCCC[C@@H](C)[C@H]1CC[C@H]2[C@@H]3[C@H](OCCCN)C[C@@H]4C[C@H](OCCCN)CC[C@]4(C)[C@H]3C[C@H](OCCCN)[C@]12C.Cl.Cl.Cl.Cl [CSA-131HC1]	4.1 ± 0.40	0.3	4.1 ± 0.17	0.3	1.2 ± 0.54	3.2	<1.7**** CCID50/0.1 mL	>2.7		
CCO [Ethanol, reference compound]									0.8 ± 0.23	3.6

Source: US12097212B2, “Use of cationic steroidal antimicrobial compounds to deactivate coronavirus” (Brigham Young University, priority 2020, dated 2024)
